In patent US20080176787A1, “Parathyroid hormone analogues and methods of use” (priority 2005, published 2008):
Where two headings read alike, the source gives them in different places. Positions of bridges follow the written chain, without caps; N, C: chain ends. Residues, ends and D or L forms follow the SMILES beside them.

Test: Phase II pharmacokinetic evaluation of subcutaneous Ostabolin-C (Baseline and Week 12 subset)
Type: in vivo, human
Conditions: human, blood; for Cmax: read-out: Cmax
Description: The objective of this portion of the study was to evaluate the pharmacokinetics of Ostabolin-C under steady state conditions when given subcutaneously (sc) once a day to post-menopausal female subjects with low bone mineral density.
After Screening procedures and a 2-week placebo run-in phase, subjects were to be dosed once a day for 16 weeks with either Placebo or Ostabolin-C (7.5, 15, 30 or 45 μg). A subset of subjects from all treatment groups had blood collected for measurements of Ostabolin-C in order to determine PK parameters and compare them to prior studies.
The full study duration of the study was 22 weeks, which included a 6-week screening period involving a 2-week placebo run-in and then 16 weeks of treatment. The subset of subjects for this component of the study was treated the same as all other subjects with the exception of the additional blood collections at baseline and Week 12.
All of the values from the Placebo subject except one (Baseline 2 hour time-point) were below the assay level of detection (i.e., 10 pg/ml). With very limited exceptions, all values from Placebo subjects in prior trials have also been below the levels of detection. Thus, this one value was considered to be a laboratory error and PK parameters for this placebo subject were not calculated.
No samples were obtained for Pre-dose at either Baseline or Week 12. In all prior studies, pre-treatment values have been below the levels of detection and 24-hour time points at doses of 40 ug and below have been below the levels of detection. Thus, no observable values were anticipated and for calculating PK the pre-treatment values for Baseline visit were set to zero.
For pre-dose at Week 12, it was also anticipated that the values would be below the levels of detection based on prior studies and that the 24-hour post dose value would verify this. Only two 24-hour time-point values were above the level of detection; i.e. 24 hours post dosing at Baseline for Subject 030-003 and 24 hours post dosing at Week 12 for Subject 030-0004. The values of both of these 24-hour time-points were marginally above the assay level of detection. Also, both of these subjects had values below the levels of detection for both the 4 hour and 6 hour time-points after dosing on the prior day. Thus, these values are most likely artifacts and not real values. No valid 24 hour sample for subject 032-0001 at Week 12 was obtained. […] Thus, for calculating PK parameters, the Pre-dose values for Week 12 were also set to zero.
The pharmacokinetic parameters that were estimated at Baseline and Week 12 are as follows:
AUC values were estimated by a simple summation of trapezoidal areas from each time period. Data from each dose group were summarized using simple statistics on an Excel® spreadsheet; i.e., average (AVG) and Standard Deviation (STD). It should be noted that particularly with the lower doses and associated low blood levels and at late time points, those values just above versus just below the assay limits of detection can have a disproportionate impact to AUC calculations. This adds to that variability of the calculated numbers.

Q: Which results are given for `CC[C@H](C)[C@H](NC(=O)[C@H](CCC(=O)O)NC(=O)[C@H](CO)NC(=O)[C@@H](NC(=O)[C@@H](N)CO)C(C)C)C(=O)N[C@@H](CCC(N)=O)C(=O)N[C@@H](CC(C)C)C(=O)N[C@@H](CCSC)C(=O)N[C@@H](Cc1c[nH]cn1)C(=O)N[C@@H](CC(N)=O)C(=O)N[C@@H](CC(C)C)C(=O)NCC(=O)N[C@@H](CCCCN)C(=O)N[C@@H](Cc1c[nH]cn1)C(=O)N[C@@H](CC(C)C)C(=O)N[C@@H](CC(N)=O)C(=O)N[C@@H](CO)C(=O)N[C@@H](CCSC)C(=O)N[C@@H](CCC(=O)O)C(=O)N[C@@H](CCCN=C(N)N)C(=O)N[C@H](C(=O)N[C@H]1CCC(=O)NCCCC[C@@H](C(=O)N[C@@H](CC(C)C)C(=O)N[C@@H](CC(C)C)C(=O)N[C@@H](CCC(N)=O)C(=O)N[C@@H](CC(=O)O)C(=O)N[C@H](C(N)=O)C(C)C)NC(=O)[C@H](CCCN=C(N)N)NC(=O)[C@H](CC(C)C)NC(=O)[C@H](Cc2c[nH]c3ccccc23)NC1=O)C(C)C` [Ostabolin-C, [Leu^27]cyclo[Glu^22-Lys^26]-PTH-(1-31)-NH2] (H-SVSEIQLMHNLGKHLNSMERVEWLRKLLQDV-NH2; lactam 22-26)?
A: Cmax (female, sc, 30 ug, Dose 30, mean of Baseline and Week 12 data): 0.0701 ng/mL; Tmax (female, sc, 30 ug, Dose 30, mean of Baseline and Week 12 data, read-out: Tmax): 22.8 min; Tmax (female, sc, 45 ug, Baseline, 45 ug, AVG, read-out: Tmax): 30 min; AUC(0-t) (female, sc, 45 ug, Dose 45, mean of Baseline and Week 12 data, read-out: AUC(0-4)): 0.22 ng·h/mL; AUC(0-t) (female, sc, 45 ug, Dose 45, mean of Baseline and Week 12 data, read-out: AUC(0-24)): 0.296 ng·h/mL; Cmax (female, sc, 45 ug, Dose 45, mean of Baseline and Week 12 data): 0.12 ng/mL; Tmax (female, sc, 45 ug, Dose 45, mean of Baseline and Week 12 data, read-out: Tmax): 22.8 min; AUC(0-t) (female, sc, 45 ug, Week 12, 45 ug, AVG, read-out: AUC(0-4)): 0.0995 ng·h/mL; AUC(0-t) (female, sc, 45 ug, Week 12, 45 ug, AVG, read-out: AUC(0-24)): 0.171 ng·h/mL; Cmax (female, sc, 45 ug, Week 12, 45 ug, AVG): 0.0669 ng/mL; Tmax (female, sc, 45 ug, Week 12, 45 ug, AVG, read-out: Tmax): 15 min; Tmax (female, sc, all doses, Baseline and Week 12 (STD 0.21 hrs), read-out: Tmax, overall average): 20.4 min; AUC(0-t) (female, subcutaneous, 7.5 ug, Baseline, 7.5 ug, AVG, read-out: AUC(0-4)): 0.0388 ng·h/mL; AUC(0-t) (female, subcutaneous, 7.5 ug, Baseline, 7.5 ug, AVG, read-out: AUC(0-24)): 0.0425 ng·h/mL; Cmax (female, subcutaneous, 7.5 ug, Baseline, 7.5 ug, AVG): 0.0272 ng/mL; AUC(0-t) (female, subcutaneous, 15 ug, Baseline, 15 ug, AVG, read-out: AUC(0-4)): 0.0742 ng·h/mL; AUC(0-t) (female, subcutaneous, 15 ug, Baseline, 15 ug, AVG, read-out: AUC(0-24)): 0.0742 ng·h/mL; Cmax (female, subcutaneous, 15 ug, Baseline, 15 ug, AVG): 0.0449 ng/mL; Tmax (female, subcutaneous, 15 μg, Dose 15, mean of Baseline and Week 12 data, read-out: Tmax): 19.8 min; Tmax (female, subcutaneous, 15 ug, Week 12, 15 ug, AVG, read-out: Tmax): 19.8 min; AUC(0-t) (female, subcutaneous, 45 ug, Baseline, 45 ug, AVG, read-out: AUC(0-4)): 0.341 ng·h/mL; AUC(0-t) (female, subcutaneous, 45 ug, Baseline, 45 ug, AVG, read-out: AUC(0-24)): 0.42 ng·h/mL; Cmax (female, subcutaneous, 45 ug, Baseline, 45 ug, AVG): 0.174 ng/mL; Cmax (subcutaneous, 7.5 ug, Baseline, 7.5 ug, individual subjects): 0.0207 ng/mL; Cmax (subcutaneous, 7.5 ug, Week 12, 7.5 ug, individual subjects): 0.021 ng/mL; Tmax (subcutaneous, 7.5 ug, Week 12, 7.5 ug, individual subjects, read-out: Tmax): 15 min; AUC(0-t) (subcutaneous, 15 ug, Baseline, 15 ug, individual subjects, read-out: AUC(0-4)): 0.066 ng·h/mL; AUC(0-t) (subcutaneous, 15 ug, Baseline, 15 ug, individual subjects, read-out: AUC(0-24)): 0.066 ng·h/mL; Cmax (subcutaneous, 15 ug, Baseline, 15 ug, individual subjects): 0.0306 ng/mL; Tmax (subcutaneous, 15 ug, Baseline, 15 ug, individual subjects, read-out: Tmax): 30 min; Tmax (subcutaneous, 15 ug, Week 12, 15 ug, individual subjects, read-out: Tmax): 15 min; AUC(0-t) (subcutaneous, 30 ug, Baseline, 30 ug, individual subject, read-out: AUC(0-4)): 0.104 ng·h/mL; AUC(0-t) (subcutaneous, 30 ug, Baseline, 30 ug, individual subject, read-out: AUC(0-24)): 0.104 ng·h/mL; Cmax (subcutaneous, 30 ug, Baseline, 30 ug, individual subject): 0.0639 ng/mL; Tmax (subcutaneous, 30 ug, Baseline, 30 ug, individual subject, read-out: Tmax): 30 min; AUC(0-t) (subcutaneous, 30 ug, Week 12, 30 ug, individual subjects, read-out: AUC(0-24)): 0.154 ng·h/mL; Cmax (subcutaneous, 30 ug, Week 12, 30 ug, individual subjects): 0.0762 ng/mL; Tmax (subcutaneous, 30 ug, Week 12, 30 ug, individual subjects, read-out: Tmax): 15 min; AUC(0-t) (subcutaneous, 45 ug, Baseline, 45 ug, individual subjects, read-out: AUC(0-4)): 0.337 ng·h/mL; AUC(0-t) (subcutaneous, 45 ug, Baseline, 45 ug, individual subjects, read-out: AUC(0-24)): 0.47 ng·h/mL; Tmax (subcutaneous, 45 ug, Baseline, 45 ug, individual subjects, read-out: Tmax): 30 min; AUC(0-t) (subcutaneous, 45 ug, Week 12, 45 ug, individual subject, read-out: AUC(0-4)): 0.128 ng·h/mL; AUC(0-t) (subcutaneous, 45 ug, Week 12, 45 ug, individual subject, read-out: AUC(0-24)): 0.128 ng·h/mL; Cmax (subcutaneous, 45 ug, Week 12, 45 ug, individual subject): 0.0871 ng/mL; Tmax (subcutaneous, 45 ug, Week 12, 45 ug, individual subject, read-out: Tmax): 15 min
